Measurements: patent US8828908B2, “Herbicidally active bicyclic 1,3-dione compounds” (Syngenta Limited, priority 2007, dated 2014)

Key:
Format in all cases: in vivo
[1] = system: Avena fatua (AVEFA); assay: Example B post-emergence herbicidal greenhouse test; details: 360 h, evaluated after 15 days, 100=total damage to plant, 0=no damage
Protocol: (§1) Seeds of a variety of test species were sown in standard soil in pots. After cultivation for one day (pre-emergence) or after 10 days cultivation (post-emergence) under controlled conditions in a glasshouse, the plants were sprayed with an aqueous spray solution derived from the formulation of the technical active ingredient in 0.6 ml acetone and 45 ml formulation solution containing 10.6% Emulsogen EL (Registry number 61791-12-6), 42.2% N-methylpyrrolidone, 42.2% dipropylene glycol monomethyl ether (Registry number 34590-94-8) and 0.2% X-77 (Registry number 11097-66-8). The test plants were then grown in a greenhouse under optimum conditions until, 15 days later for post-emergence and 20 days for pre-emergence, the test was evaluated (100=total damage to plant; 0=no damage to plant).
(§2) Alopecurus myosuroides (ALOMY), Avena fatua (AVEFA), Lolium perenne (LOLPE), Setaria faberi (SETFA), Digitaria sanguinalis (DIGSA), Echinochloa crus-galli (ECHCG)

[2] = system: Alopecurus myosuroides (ALOMY); assay: as above; details: 360 h, evaluated after 15 days, 100=total damage to plant, 0=no damage
Protocol: as §1, §2

[3] = system: Setaria faberi (SETFA); assay: as above; details: 360 h, evaluated after 15 days, 100=total damage to plant, 0=no damage
Protocol: as §1, §2

[4] = system: Lolium perenne (LOLPE); assay: as above; details: 360 h, evaluated after 15 days, 100=total damage to plant, 0=no damage
Protocol: as §1, §2

[5] = system: Echinochloa crus-galli (ECHCG); assay: as above; details: 360 h, evaluated after 15 days, 100=total damage to plant, 0=no damage
Protocol: as §1, §2

[6] = system: Digitaria sanguinalis (DIGSA); assay: as above; details: 360 h, evaluated after 15 days, 100=total damage to plant, 0=no damage
Protocol: as §1, §2

[7] = system: Avena fatua (AVEFA); assay: Example B pre-emergence herbicidal greenhouse test; details: 480 h, evaluated after 20 days, 100=total damage to plant, 0=no damage
Protocol: as §1, §2

[8] = system: Alopecurus myosuroides (ALOMY); assay: Example B pre-emergence herbicidal greenhouse test; details: 480 h, evaluated after 20 days, 100=total damage to plant, 0=no damage
Protocol: as §1, §2

[9] = system: Setaria faberi (SETFA); assay: Example B pre-emergence herbicidal greenhouse test; details: 480 h, evaluated after 20 days, 100=total damage to plant, 0=no damage
Protocol: as §1, §2

[10] = system: Lolium perenne (LOLPE); assay: Example B pre-emergence herbicidal greenhouse test; details: 480 h, evaluated after 20 days, 100=total damage to plant, 0=no damage
Protocol: as §1, §2

[11] = system: Echinochloa crus-galli (ECHCG); assay: Example B pre-emergence herbicidal greenhouse test; details: 480 h, evaluated after 20 days, 100=total damage to plant, 0=no damage
Protocol: as §1, §2

[12] = system: Digitaria sanguinalis (DIGSA); assay: Example B pre-emergence herbicidal greenhouse test; details: 480 h, evaluated after 20 days, 100=total damage to plant, 0=no damage
Protocol: as §1, §2

[13] = system: Avena fatua (AVEFA); assay: Example A post-emergence herbicidal glasshouse test; details: 312 h, evaluated after 13 days, 100=total damage to plant, 0=no damage
Protocol: (§3) Seeds of a variety of test species were sown in standard soil in pots. After cultivation for one day (pre-emergence) or after 8 days cultivation (post-emergence) under controlled conditions in a glasshouse (at 24/16° C., day/night; 14 hours light; 65% humidity), the plants were sprayed with an aqueous spray solution derived from the formulation of the technical active ingredient in acetone/water (50:50) solution containing 0.5% Tween 20 (polyoxyethelyene sorbitan monolaurate, CAS RN 9005-64-5). The test plants were then grown in a glasshouse under controlled conditions in a glasshouse (at 24/16° C., day/night; 14 hours light; 65% humidity) and watered twice daily. After 13 days for pre and post-emergence, the test was evaluated (100=total damage to plant; 0=no damage to plant).
(§4) Alopecurus myosuroides (ALOMY), Avena fatua (AVEFA), Setaria faberi (SETFA), Echinochloa crus-galli (ECHCG), Solanum nigrum (SOLNI) and Amaranthus retroflexus (AMARE)

[14] = system: Alopecurus myosuroides (ALOMY); assay: as above; details: 312 h, evaluated after 13 days, 100=total damage to plant, 0=no damage
Protocol: as §3, §4

[15] = system: Setaria faberi (SETFA); assay: as above; details: 312 h, evaluated after 13 days, 100=total damage to plant, 0=no damage
Protocol: as §3, §4

[16] = system: Echinochloa crus-galli (ECHCG); assay: as above; details: 312 h, evaluated after 13 days, 100=total damage to plant, 0=no damage
Protocol: as §3, §4

[17] = system: Amaranthus retroflexus (AMARE); assay: as above; details: 312 h, evaluated after 13 days, 100=total damage to plant, 0=no damage
Protocol: as §3, §4

[18] = system: Avena fatua (AVEFA); assay: Example A pre-emergence herbicidal glasshouse test; details: 312 h, Rate 250 g/ha, evaluated after 13 days, 100=total damage to plant, 0=no damage to plant
Protocol: as §3, §4

[19] = system: Alopecurus myosuroides (ALOMY); assay: Example A pre-emergence herbicidal glasshouse test; details: 312 h, Rate 250 g/ha, evaluated after 13 days, 100=total damage to plant, 0=no damage to plant
Protocol: as §3, §4

[20] = system: Setaria faberi (SETFA); assay: Example A pre-emergence herbicidal glasshouse test; details: 312 h, Rate 250 g/ha, evaluated after 13 days, 100=total damage to plant, 0=no damage to plant
Protocol: as §3, §4

[21] = system: Echinochloa crus-galli (ECHCG); assay: Example A pre-emergence herbicidal glasshouse test; details: 312 h, Rate 250 g/ha, evaluated after 13 days, 100=total damage to plant, 0=no damage to plant
Protocol: as §3, §4

[22] = system: Amaranthus retroflexus (AMARE); assay: Example A pre-emergence herbicidal glasshouse test; details: 312 h, Rate 250 g/ha, evaluated after 13 days, 100=total damage to plant, 0=no damage to plant
Protocol: as §3, §4

Compound | pest or weed control at 125 g/ha [1] | pest or weed control at 125 g/ha [2] | pest or weed control at 125 g/ha [3] | pest or weed control at 125 g/ha [4] | pest or weed control at 125 g/ha [5] | pest or weed control at 125 g/ha [6] | pest or weed control at 250 g/ha [7] | pest or weed control at 250 g/ha [8] | pest or weed control at 250 g/ha [9] | pest or weed control at 250 g/ha [10] | pest or weed control at 250 g/ha [11] | pest or weed control at 250 g/ha [12] | also measured
CCc1ccc(-c2ccc(Cl)c(Cl)c2)cc1C1=C(O)[C@H]2CC[C@H](C2)C1=O (single isomer, unassigned) [Compound T35] | 10% | 0% | 70% | 20% | 80% | 70% | 30% | 10% | 40% | 20% | 50% | 70% | pest or weed control at 250 g/ha [13]: 50%; pest or weed control at 250 g/ha [14]: 40%; pest or weed control at 250 g/ha [15]: 100%; pest or weed control at 250 g/ha [16]: 100%; pest or weed control at 250 g/ha [17]: 0%; pest or weed control at 250 g/ha [18]: 20%; pest or weed control at 250 g/ha [19]: 20%; pest or weed control at 250 g/ha [20]: 90%; pest or weed control at 250 g/ha [21]: 90%; pest or weed control at 250 g/ha [22]: 0%
Cc1cc(-c2ccccc2)cc(C)c1C1=C(OC(=O)C(C)(C)C)C2CCC(C2)C1=O (stereo not shown) [Compound P2, 3-(3,5-dimethylbiphen-4-yl)-4-oxo-bicyclo[3.2.1]oct-2-en-2-yl 2,2-dimethylpropionate] | 0% | 30% | 40% | 10% | 60% | 40% | 40% | 30% | 70% | 30% | 50% | 70% | 
CCc1ccc(-c2ccc(F)cc2)cc1C1=C(O)[C@H]2CC[C@H](C2)C1=O [Compound T3] | 30% | 50% | 90% | 0% | 90% | 80% | 60% | 50% | 100% | 70% | 100% | 80% | 
CCc1ccc(-c2ccc(C)cc2)cc1C1=C(O)[C@H]2CC[C@H](C2)C1=O [Compound T5] | 0% | 0% | 70% | 0% | 80% | 50% | 10% | 0% | 0% | 0% | 100% | 10% | 
Cc1cc(-c2ccccc2)cc(C)c1C1=C(O)[C@H]2CC[C@H](C2)C1=O [Compound T6, 3-(3,5-dimethylbiphen-4-yl)bicyclo[3.2.1]-2,4-dione] | 10% | 20% | 0% | 10% | 30% | 10% | 0% | 60% | 80% | 50% | 90% | 100% | 
